{"source": "patent US10301298B2", "about": "“Methods, compounds, and compositions for the treatment of angiotensin-related diseases” (University of Southern California, priority 2013, dated 2019)", "key": {"[1]": {"system": "db/db mice", "assay": "Liver lipid levels, Oil Red O staining, in db/db mice", "assay_type": "in vivo", "settings": "500 mcg/kg/day, 14 days", "procedure": "The lipid levels found in the liver was evaluated in db/db animals treated for 14 days with vehicle, 500 mcg/kg/day Ang(1-7) or Compound 7. Livers isolated from mice were harvested. Liver tissue sections were washed with cold saline and frozen in the presence of optimum cutting temperature (OCT) formulation. Tissues were then cut into 10-μm sections using a cryostat. Oil Red O staining and H&E staining were performed according to published procedures (Yang et al., 2013). The tissues were observed and images acquired using a light microscope (Olympus BX51) (FIG. 6)."}, "[2]": {"molecular_target": "T1, Mas (Homo sapiens, UniProt P04201)", "T1 construct": "expressed in transfected cells", "T1 sequence (P04201 1-325)": "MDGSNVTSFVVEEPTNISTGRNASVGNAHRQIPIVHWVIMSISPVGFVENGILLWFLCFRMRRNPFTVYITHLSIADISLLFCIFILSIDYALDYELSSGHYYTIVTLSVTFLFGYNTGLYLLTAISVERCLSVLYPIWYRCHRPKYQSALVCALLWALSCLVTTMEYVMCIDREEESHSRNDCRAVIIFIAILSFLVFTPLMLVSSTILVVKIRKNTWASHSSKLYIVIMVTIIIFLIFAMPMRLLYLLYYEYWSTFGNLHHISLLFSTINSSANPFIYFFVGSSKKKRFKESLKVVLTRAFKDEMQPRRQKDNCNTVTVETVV", "assay": "Competition binding assay, displacement of fluorescent Ang(1-7) from Mas-transfected CHO cells", "set-up": "concentration or dose not given beside the values", "settings": "CHO cells transfected with Human mas1, on ice", "procedure": "CHO cells stably transfected with recombinant Human mas1 proto-oncogen driven by the human cytomegalovirus were grown to 80% confluency. The cells were detached with trypsin and harvested by centrifugation. Cells were washed three times in progressively colder buffers. The final number of cells per assay was 5×10^5. All subsequent steps were performed on ice. Test compound was added to the cells for 10 minutes prior to addition of fluorescently labeled A(1-7). After 10 minutes further incubation, the cells were washed to remove unbound A(1-7) and the fluorescence bound was read at an excitation of 490 nm and an emission of 520 nm."}, "[3]": {"molecular_target": "T1, Mas", "assay": "NO production in CHO cells stably transfected with Human Mas1", "assay_type": "cell-based", "settings": "for NO production with co-administration of A779: with A779, selective Mas antagonist, 1×10^−7 M", "procedure": "Transfected cells that express Mas were used to identify and evaluate provided compounds as Mas agonists, by promoting NO production as readouts. CHO cells stably transfected with pTEJ-8 vector containing recombinant Human Mas1 clone were grown to confluency. Cells were washed three times for 30/5/5 minutes with prewarmed (37° C.) Tyrodes Salts (supplemented with 1 g/L NaHCO3, and 1.9 g/L d-Glucose). Cells were incubated for a short time in 700 μL of supplemented Tyrodes salts containing 10 μM PTIO, 100 μM DAN, and 1 mM L-arginine. When using antagonist for competition assays, cells were exposed to the inhibitor at 1×10^−7 M for 15 minutes, before additional drugs are added.\nChemicals (10^−8 to 10^−6 M or the maximum concentration found not to cause cytotoxicity) to be screened were added to the cell medium and the plates were agitated for 1 minute before being placed into the incubator for 2 hours. After 2 hours, cellular supernatants were transferred to opaque 96 well plates, and the fluorescence intensity was recorded at an ex/em of 380/425."}, "[4]": {"molecular_target": "T2, AT2R (Homo sapiens, UniProt P50052)", "T2 sequence (P50052 1-363)": "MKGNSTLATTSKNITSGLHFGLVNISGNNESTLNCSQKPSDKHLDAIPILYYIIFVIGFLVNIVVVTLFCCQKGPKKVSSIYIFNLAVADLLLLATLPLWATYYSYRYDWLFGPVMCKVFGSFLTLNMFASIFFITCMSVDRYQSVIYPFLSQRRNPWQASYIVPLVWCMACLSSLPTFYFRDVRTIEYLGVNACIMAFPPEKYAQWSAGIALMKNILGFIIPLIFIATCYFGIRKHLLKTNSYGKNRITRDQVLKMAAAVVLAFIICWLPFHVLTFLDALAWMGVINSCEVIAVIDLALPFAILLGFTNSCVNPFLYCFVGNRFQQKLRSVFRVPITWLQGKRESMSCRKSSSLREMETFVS", "assay": "AT2R displacement assay with radiolabeled Ang II", "assay_type": "binding", "settings": "displacement of radiolabeled Ang II or analogs; read-out: EC50 displacing Ang II in the AT2R displacement assay", "procedure": "Compound 7 was evaluated in vitro for its ability to compete with ratholabeled Ang II or analogs in a displacement assay for AT1R and AT2R receptors."}, "[5]": {"system": "db/db mice", "assay": "Organ weights (organmegaly) in db/db mice", "assay_type": "in vivo", "settings": "14 days", "source_text": "Compound 7 (500 mcg/kg/day) or Ang(1-7) (500 mcg/kg/day) treated db/db mice were euphanized after 14 days of treatment. At necropsy, organs were collected for histology and weights. In FIG. 6A to 6C, hearts, left and right kidney normalized to tibia length were weight where db/db treated with Compound 7 were lower than db/db-controls (saline) and db/db treated with Ang(1-7)."}, "[6]": {"system": "db/db mice", "assay": "Bone marrow cell counts and progenitor colonies in db/db mice", "assay_type": "in vivo", "settings": "500 mcg/kg/day subcutaneously, 14 days", "procedure": "The femurs and tibia were collected from db/db mice treated 500 mcg/kg/day Ang(1-7) or Compound 7 subcutaneously for 14 days were euphanized and the bone marrow were collected by flushing with PBS containing 2% fetal calf serum. After collection of the bone marrow, the red blood cells will be lysed with a hypotonic solution (described above), mixed with 0.04% trypan blue and the number of nucleated cells was assessed by hematocytometer under light microscopy. Aliquots of cells were then resuspended at 1×10^6 cells/ml (GM and GEMM, bone marrow), 1.5×10^6 cells/ml (BFU-E, bone marrow). One hundred μ1 of each suspension was added to 900 μl of semisolid medium containing 0.9% methyl cellulose in Iscove's MDM, 15% fetal calf serum, 1% bovine serum albumin, 10 μg/ml bovine pancreatic insulin, 200 μg/ml human transferrin, 10^−4 M 2-mercaptoethanol, 2 mM glutamine, 10 ng/ml recombinant murine interleukin 3, 10 ng/ml recombinant human interleukin 6, 50 ng/ml recombinant murine stem cell factor and 3 units/ml erthropoietin. This mixture was then added to duplicate wells of a 24 well plate. The cultures were then placed at 37° C. in a humidified atmosphere of 5% CO2 in air. At day 14, the number of progenitor colonies formed was enumerated under phase contrast microscopy.\nThe bone marrow cells were also cultured to assess the number of MSCs by a CFU—F assay. 2.5×10^5 cells/ml, 2 ml per well, were diluted into Mesencult medium (Stem Cell Technologies, Vancouver, BC, Canada) and 2 mL were placed in each well of a 24 well plate. The cultures were then incubated at 37° C. in a humidified atmosphere of 5% CO2 in air. At days 2, 5 and 8, the number of progenitor colonies formed was enumerated under phase contrast microscopy."}, "[7]": {"settings": "500 mcg/kg/day, p<0.05 vs db/db controls"}}, "note": "pEC50: −log10 of the molar value.", "data": [{"smiles": "CCCCOC(=O)NS(=O)(=O)c1ccc(OC(F)(F)F)cc1-c1ccc(Cn2ccnc2)cn1", "note": "[Compound 7, butyl (2-(5-((1H-imidazol-1-yl)methyl)pyridin-2-yl)-4-(trifluoromethoxy)phenyl)sulfonylcarbamate]", "values": [{"measurement": "Oil Red staining of liver (lipid deposition) compared with db/db controls", "setting": "[1]", "value": "reduced Oil Red staining"}, {"measurement": "% Displacement", "setting": "[2]", "value": 28.1, "unit": "%"}, {"measurement": "ability to enhance NO production (fluorescence)", "setting": "[3]; Mas-transfected CHO cells", "value": "concentration dependent increase in NO"}, {"measurement": "pEC50", "setting": "[3]; Mas-transfected CHO cells, 2 hours", "value": 8.00}, {"measurement": "NO production with co-administration of A779", "setting": "[3]", "value": "back to baseline"}, {"measurement": "NO production with co-administration of A779", "setting": "[3]; listed as compound 7", "value": "back to baseline fluorescence"}, {"measurement": "pEC50", "setting": "[4]", "value": "< 5.00"}, {"measurement": "right kidney weight", "setting": "[5]; 500 μg/kg/day", "value": "trended to be similar to heterozygous control"}, {"measurement": "development of cardiomegaly (heart weight normalized to tibia length)", "setting": "[5]; [7]", "value": "prevent the development of cardiomegaly"}, {"measurement": "development of left kidney hypertrophy (weight normalized to tibia length)", "setting": "[5]; [7]", "value": "prevent"}, {"measurement": "bone marrow counts", "setting": "[6]", "value": "increase bone marrow counts"}, {"measurement": "increase in bone marrow cell number, CFU-GEMM, CFU-GM, BFU-E and MSC", "setting": "[6]", "value": "comparable to Ang(1-7)"}, {"measurement": "bone marrow counts", "setting": "[6]; listed as compound 7", "value": "increased the bone marrow counts"}]}]}
